Assay results: ChEMBL document CHEMBL1201862, “PubChem BioAssay data set” (2004)
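Results reflect a 48-hour exposure of cells in 96-well plates to compound at five concentrations. GI50: concentration for 50% inhibition of growth.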 Active and inactive are the calls of the source. Cut-off read from the data, not from the text of the source: active = GI50 up to about 1.1 µM and inactive = higher.

Tests used:
Assay in all cases: DTP human tumour cell line panel, 48 h
SK-OV-3 = test system: SK-OV-3
K562 = test system: K562
SK-MEL-2 = test system: SK-MEL-2
SK-MEL-28 = test system: SK-MEL-28
SR = test system: SR
DU-145 = test system: DU-145
PC-3 = test system: PC-3
MOLT-4 = test system: MOLT-4
RPMI-8226 = test system: RPMI-8226
UACC-62 = test system: UACC-62
RXF 393 = test system: RXF 393
M14 = test system: M14
SNB-19 = test system: SNB-19
COLO 205 = test system: COLO 205
U-251 = test system: U-251
786-0 = test system: 786-0
NCI-H226 = test system: NCI-H226
SK-MEL-5 = test system: SK-MEL-5
SNB-75 = test system: SNB-75
A498 = test system: A498

SMILES	GI50 (SK-OV-3)	GI50 (K562)	GI50 (SK-MEL-2)	GI50 (SK-MEL-28)	GI50 (SR)	GI50 (DU-145)	GI50 (PC-3)	GI50 (MOLT-4)	GI50 (RPMI-8226)	GI50 (UACC-62)	GI50 (RXF 393)	GI50 (M14)	GI50 (SNB-19)	GI50 (COLO 205)	GI50 (U-251)	GI50 (786-0)	GI50 (NCI-H226)	GI50 (SK-MEL-5)	GI50 (SNB-75)	GI50 (A498)
COc1cc(-c2oc(/C=N/c3ccccc3)c([N+](=O)[O-])c2-c2ccc(O)c(OC)c2)ccc1O	> 41.8 µM (inactive)	36.1 µM (inactive)	32.9 µM (inactive)	19.5 µM (inactive)	2.86 µM (inactive)	20.1 µM (inactive)	18.7 µM (inactive)	12.2 µM (inactive)	25.1 µM (inactive)	17.9 µM (inactive)	22.8 µM (inactive)	32.1 µM (inactive)	22.4 µM (inactive)	20.3 µM (inactive)	23.4 µM (inactive)	20.6 µM (inactive)	26.9 µM (inactive)	23.7 µM (inactive)	11.5 µM (inactive)	
COc1cc(/C=C2\CCC(C)C3C2=NN(C(C)=O)C3c2cc(OC)c(OC)c(OC)c2)cc(OC)c1OC (centres undefined)	> 100 µM (inactive)	> 100 µM (inactive)		6.93 µM (inactive)	> 52.6 µM (inactive)	> 100 µM (inactive)	> 100 µM (inactive)	> 100 µM (inactive)	36.7 µM (inactive)	38.8 µM (inactive)	43.5 µM (inactive)	> 100 µM (inactive)	> 100 µM (inactive)	> 100 µM (inactive)	> 85.5 µM (inactive)	> 79.6 µM (inactive)	> 100 µM (inactive)	> 57 µM (inactive)	15.8 µM (inactive)	> 100 µM (inactive)
O=C(O)/C=c1/c2ccccc2n2nc3ccccc3c12	22.8 µM (inactive)	36.6 µM (inactive)	39.7 µM (inactive)	26 µM (inactive)	16.6 µM (inactive)	41.6 µM (inactive)	> 100 µM (inactive)	23 µM (inactive)	25.8 µM (inactive)	17.5 µM (inactive)	49.1 µM (inactive)	31.2 µM (inactive)	31.8 µM (inactive)	17.2 µM (inactive)	33.6 µM (inactive)	38.6 µM (inactive)		14.2 µM (inactive)		22 µM (inactive)
O=c1[nH]c2ccc(Cl)cc2o1	> 100 µM (inactive)	> 100 µM (inactive)			> 100 µM (inactive)	> 100 µM (inactive)	> 100 µM (inactive)	> 100 µM (inactive)	> 100 µM (inactive)	> 100 µM (inactive)	> 100 µM (inactive)	> 100 µM (inactive)	> 100 µM (inactive)	> 100 µM (inactive)	> 100 µM (inactive)	> 100 µM (inactive)	> 100 µM (inactive)	> 100 µM (inactive)	> 100 µM (inactive)	> 100 µM (inactive)
Cn1c(CO)ccc1-c1ccc(-c2ccc[se]2)[se]1	13.6 µM (inactive)	0.449 µM (active)	41.1 µM (inactive)	> 49.5 µM (inactive)	30.3 µM (inactive)	17.7 µM (inactive)	> 90.4 µM (inactive)	19.6 µM (inactive)	20.9 µM (inactive)		3.07 µM (inactive)	42.9 µM (inactive)	30.7 µM (inactive)	3.46 µM (inactive)		29.1 µM (inactive)	0.244 µM (active)	29.8 µM (inactive)	12.8 µM (inactive)	0.0349 µM (active)
N#C/C(=C/N1C(=O)/C(=C/c2ccc([N+](=O)[O-])cc2)SC1=S)c1nc2ccccc2s1	15.9 µM (inactive)	17.5 µM (inactive)	16.7 µM (inactive)	30.1 µM (inactive)	25.6 µM (inactive)	31.8 µM (inactive)	13.8 µM (inactive)		11.1 µM (inactive)	4.42 µM (inactive)	19.3 µM (inactive)	27.8 µM (inactive)	29.6 µM (inactive)	14.5 µM (inactive)	15.2 µM (inactive)	25.4 µM (inactive)	12.2 µM (inactive)	11.4 µM (inactive)	25.1 µM (inactive)	12.1 µM (inactive)
CCNC(=S)N/N=C(\C)c1cccc(C)n1	13.1 µM (inactive)	1.78 µM (inactive)	42.8 µM (inactive)	22.3 µM (inactive)	> 100 µM (inactive)	14.9 µM (inactive)	5.87 µM (inactive)	0.631 µM (active)		15.4 µM (inactive)	45.3 µM (inactive)	11 µM (inactive)	30.3 µM (inactive)	0.748 µM (active)	7.43 µM (inactive)	12.8 µM (inactive)	11 µM (inactive)	4.52 µM (inactive)	75.2 µM (inactive)	13.5 µM (inactive)
Cc1ccc(S(=O)(=O)OCCC2CN(C(=O)OCc3ccccc3)C(C)(C)O2)cc1 (centres undefined)	> 100 µM (inactive)	8.63 µM (inactive)	17.7 µM (inactive)	11.4 µM (inactive)	4.47 µM (inactive)	57.8 µM (inactive)	4.79 µM (inactive)	2.81 µM (inactive)	3.92 µM (inactive)	10.2 µM (inactive)	6.4 µM (inactive)	7.38 µM (inactive)	3.83 µM (inactive)	7.38 µM (inactive)	16.7 µM (inactive)	11.6 µM (inactive)	0.106 µM (active)	2.72 µM (inactive)		> 100 µM (inactive)
